Here are results for one substance from US5998596A, “Inhibition of protein kinase activity by aptameric action of oligonucleotides” (The United States of America as represented by the …).

Entries after “also recorded” stand apart in the source; their conditions may differ.

Data set [1] deals with cellular phosphotyrosine content of K562 cells. Briefly: Western analysis of total cellular phosphotyrosine content after electroporation of K562 cells. It is filed as cell-based, human. Particulars: K562 cells electroporated with 100 μM ODN, one hour later. The procedure: One hundred micrograms of protein from cell lysates were separated on a 7% SDS polyacrylamide gel. Transfer was performed overnight at 50 volts, 4° C., in a 0.2 M glycine, 25 mM Tris, pH 8.3, 0.15% SDS, 20% methanol buffer, onto […] nitrocellulose (Schleicher and Schuell Inc.). For cellular phosphotyrosine blots, Western probing was performed as described previously, with modifications (SARTOR, et al, 1991). Briefly, membranes were blocked for 2 hours with 5% albumin in TTBS (20 mM Tris HCL, pH 7.6; 0.05% Tween 20; 0.9% sodium chloride), probed for 1 hour with antiphosphotyrosine antibody (Upstate Biotechnology Inc., Lake Placid, N.Y.) diluted 1:500 in TTBS, followed by rabbit anti-mouse antibody (Cappel Research Products) and then [^125 I] protein A Sepharose (Amersham Corp., Arlington Heights, Ill.). Membranes were exposed to Kodak X-OMAT AR film overnight at -70° C. with intensifying screens.
Electroporation was performed as described (40). Briefly, 1-5×10^6 cells in 1 ml of RPMI 1640 with 10% fetal calf serum were placed into 0.4 cm gap electroporation chambers and electroporated with a Cell-Porator Electroporation System 1 (all from GIBCO BRL, Grand Island, N.Y.) at 800 microfarrads, 300 volts, at room temperature. Cells were then incubated at 37° C. for 1 hour before manipulation.
In K562 cells p210^bcr-abl is a major kinase responsible for protein tyrosine phosphorylation (38, 39). Changes in enzyme activity are therefore reflected by changes in cellular phosphotyrosine content.

The next data set deals with p210^bcr-abl kinase. The data set is described as follows: Immunoprecipitation kinase assay of p210bcr-abl (autophosphorylation), ODN added to kinase reaction. Type of data set: biochemical, human. As to conditions: for inhibition of p210^bcr-abl kinase activity in vitro (in words): ODN at 1 μM added to the immunoprecipitated enzyme. As for the experimental part:
(§1) The p210^bcr-abl kinase, src kinase and cdc-2 kinase were immunoprecipitated from K562 cells. The p145^abl kinase was immunoprecipitated from PC3M cells, PDGF receptor kinase from 3T3 cells, and EGF receptor kinase from A431 cells. MAP kinase was utilized as a pure protein and lck kinase was immunoprecipitated from peripheral blood lymphocytes of a normal volunteer.
(§2) Cells were washed in phosphate buffered saline (PBS) and 0.5-5×10^6 cells were solubilized in 1 ml of the specified cell lysis buffers. Unless otherwise stated, all cell lysis buffers contained the following protease inhibitors: 20 μg/ml leupeptin, 1 μg/ml aprotinin, and 1 mM phenylmethylsulfonylfluroide. For p210^bcr-abl and […] immunoprecipitation, cells were lysed with ABL lysis buffer (25 mM imidazole, pH 7.2, 0.5% NP40, 50 mM NaCl, 1 mM Na3 VO4) and lysates were clarified at 14,000 g. 4° C. for 30 minutes. Cell lysis for all other proteins was performed according to the references describing the various immunoprecipitation kinase assays.
Immunoprecipitation kinase assays of p210^bcr-abl p145^abl were performed as described, with modifications (15). Briefly, for p210^bcr-abl, 1 μg of anti-bcr antibody (clone 7C6, Oncogene Science, Uniondale, N.Y.) was added to lysates prepared from 0.5-1×10^6 K562 cells. For p145^abl, 1 μg of anti-c-abl antibody (clone 24-21), which binds to the C-terminal domain of p145^abl, was added to lysates prepared from 5×10^6 PC3M cells. After incubating 1 hour at 4° C., complexes were precipitated by incubating with protein A-Sepharose coated with rabbit anti-mouse immunoglobulin (Cappel Research Products, Durham, N.C.) for 30 minutes. The complexes were then washed as follows: ABL lysis buffer×2, PBS×1, and ABL assay buffer×1 (24 mM imidazole, pH 7.2, 1 mg/ml bovine serum albumin, and 10 mM MnCl). For p145^abl assays ABL assay buffer contained 20 mM MnCl. To access the activity of p210^bcr-abl on substrate phosphorylation, acid inactivated enolase (Sigma Chemical Co., St. Louis, Mo.) was added as described (15).
ODNs were added to kinase reaction buffers not more than 5 minutes prior to the addition of ATP. Reactions were initiated by the addition of [γ^-32 P] ATP (3000 Ci/mmole; Amersham Corp., Arlington Heights, Ill.) and quenched by the addition of 5× gel loading buffer and heating to 95° C. Kinase reactions were run for 1-10 minutes at room temperature, except for EGFR, p145^abl, and MAP kinase, which were run at 30° C. The products were then electrophoresed on SDS-polyacrylamide gels: 7% for p210^bcr-abl, EGFR, and PDGFR, 8% for p145^abl, 10% for src, lck, and cdc-2 kinase, and 12% for MAP kinase. Gels were dried and reaction products were visualized by direct autoradiography at -70° C. with Kodak X-OMAT AR film. To determine the inhibitory concentration 50, i.e., the concentration required to inhibit enzyme activity by 50% (IC50) and Ki values, gel slices containing the band of interest were excised and analyzed by Cerenkov counting.

The test system of a further data set is p145^abl kinase. The data set is described as follows: Immunoprecipitation kinase assay of p145abl. It is filed as biochemical. As for the experimental part:
as §1, §2
Immunoprecipitation kinase assays of p210^bcr-abl p145^abl were performed as described, with modifications (15). Briefly, for p210^bcr-abl, 1 μg of anti-bcr antibody (clone 7C6, Oncogene Science, Uniondale, N.Y.) was added to lysates prepared from 0.5-1×10^6 K562 cells. […]

The subject of data set [2] is Platelet derived growth factor receptor (PDGFR). Briefly: PDGFR autophosphorylation immune complex kinase assay. It is filed as biochemical.
Excerpt: as §1
(§3) Epidermal growth factor receptor (EGFR) was immunoprecipitated with 10 ,g anti-EGFR antibody (clone LA1) and human recombinant epidermal growth factor (both from Upstate Biotechnology Inc., Lake Placid, N.Y.). The assay was performed as described (17) but without removing the EGFR from the protein A-antibody solid support. Instead, epidermal growth factor, at a final concentration of 100 nM, was added to the kinase reaction mixture. Platelet derived growth factor receptor (DGFR) was immunoprecipitated with anti-human type A/type B PDGFR antibody (Upstate Biotechnology Inc.) and immune complex kinase assays performed as referenced (18) except that protein A-Sepharose coated with rabbit anti-mouse immunoglobulin was used instead of formalin-fixed Staphylococcus aureus to bind PDGFR-antibody conjugates. C-src was immunoprecipitated with anti-v-src antibody (Ab-1; Oncogene Science) and assayed as previously described (19) with the addition of enolase as exogenous substrate. […]

A further data set deals with MAP kinase. The data set is described as follows: MAP kinase assay with purified enzyme. Type of data set: biochemical. Particulars: Cerenkov counting of excised gel slices.
Excerpt: as §1, §3

For the next data set, the system named is lck kinase. Briefly: Immunoprecipitation kinase assay of lck. Type of data set: biochemical.
Excerpt: as §1, §3

[3] abbreviates: Cerenkov counting of excised gel slices, mean ± SD.

For orientation: IC50 means the concentration that gives 50% inhibition. A high value points to weaker potency in that assay. Broadly, the Ki is the dissociation constant of the complex between target and ligand, obtained from inhibition or displacement. A higher Ki goes with a looser hold on the target. On to “5'-GTCCACCATGGCGCGGCCGGC-3' [ODN1] (phosphorothioate caps, further chemistry not given here) [21mer ODN complementary to nucleotides -12 to +9 of the p210bcr-abl mRNA, phosphorothioate capped unless otherwise specified]”, for which the “total cellular protein phosphotyrosine content” value in data set [1] (listed as BCR-AS) is “dropped significantly; also recorded: reduced protein phosphotyrosine content”; in data set [1] (listed as BCR-AS phosphorothioate capped), “equally effective”. The “p210^bcr-abl autophosphorylation in the presence of enolase” value in the data set with p210^bcr-abl kinase (1 μM BCR-AS, lower concentrations of enolase, three minute reaction) is given as “only a slight effect”. In the data set on p210^bcr-abl kinase (1 μM ODN1), the “nature of the enzymatic inhibition with respect to ATP” value is “purely noncompetitive”. For the same substance, the IC50 in the data set on p210^bcr-abl kinase (setting [3]) is 0.52 ± 0.12 µM; with p145^abl kinase (setting [3]), 0.62 ± 0.24 µM; in data set [2] (setting [3]), 4.4 ± 2.3 µM; in the data set with MAP kinase, greater than 100 µM; in the data set with lck kinase (Cerenkov counting of excised gel slices), greater than 50 µM. The “Percent Remaining Activity of p210^bcr-abl kinase relative to control” value in the data set with p210^bcr-abl kinase (ODN 1 μM, phosphorothioate capped, mean ± SE of three experiments) is 36 ± 1.2%. The results for the “inhibition of p210^bcr-abl kinase activity in vitro (in words)” value in the data set on p210^bcr-abl kinase and in the data set with p210^bcr-abl kinase (listed as ODN1 phosphorothioate capped) were “markedly inhibited” and “intermediate potencies”, respectively. Also, in the data set with p210^bcr-abl kinase (various [γ-32P]ATP concentrations, presence or absence of 1 μM ODN1, double-reciprocal plot), the Ki turned out to be 0.52 ± 0.12 µM. Also, the “sensitivity of p145^abl compared with p210^bcr-abl” value in the data set on p145^abl kinase is “equally sensitive”. Further, the “sensitivity of PDGF receptor relative to p145^abl or p210^bcr-abl” value in data set [2] is on record as “almost a log less sensitive”. The “inhibition of lck (in words)” value in the data set on lck kinase (ODN1 concentrations greater than 2 logs above the Ki for p210^bcr-abl) is reported as “not significantly inhibited”.
